Measured values as given in patent US20100203159A1, “METAL COMPONENT […] IN PLANT” (COSMO OIL CO., LTD., priority 2007, published 2010).

Tests used:
spinach = test: Metal absorption-enhancing effect in spinach by daily spraying, metal content in dry weight by ICP; assay type: in vivo
Description: Two containers were provided and soil was placed in each of them, in which seeds of spinach were uniformly planted. From the day when the seeds were planted, water was applied once a day by means of a sprinkling can. To one of the container, tap water in which 5-aminolevulinic acid hydrochloride was dissolved in a concentration of 1 ppm was sprayed once a day in an amount of about 50 mL by means of a sprayer. Thinning was performed 3 weeks after the seed planting, and harvest was performed on the two containers after 38 days. At the harvest, the upper portions from the ground were cut out and the plant bodies were subjected to natural drying. After drying, the plant bodies was ground one by one in a mortar, the calcium content in dry weight was measured by ICP, and the concentration was calculated.
Similar operations were performed as in Example 1 and the manganese concentration in spinach was calculated.
Similar operations were performed as in Example 1 and the iron concentration in spinach was calculated.
Similar operations were performed as in Example 1 and the copper concentration in spinach was calculated.
Similar operations were performed as in Example 1 and the zinc concentration in spinach was calculated.

barley [1] = test: Metal absorption-enhancing effect in barley hydroponics (water culture medium A), ICP metal analysis; assay type: in vivo, Barley (race: Fiber snow); settings: for calcium content-enhancing effect in barley: FIG. 1; for zinc content-enhancing effect in barley: FIG. 5; for copper content-enhancing effect in barley: FIG. 4; for manganese content-enhancing effect in barley: FIG. 2; for iron content-enhancing effect in barley: FIG. 3
Description: Barley (race: Fiber snow) was seeded on river sand, sprouted, and grown for 9 days. After the growth, the sand was washed out with caring so as not to hurt roots and the roots were cut so as to adjust the length to 2 cm. The roots were immersed in a water culture medium A and hydroponics was performed.
As water culture media, one in which no 5-aminolevulinic acid was dissolved and those in which the compound was dissolved so that each one has a concentration of 0.1, 0.3, or 1 ppm were prepared. The water culture medium was replaced 13 days after the start of the hydroponics, and hydroponics was continued for another 6 days. After the hydroponics, the plant was dried at 50° C. for two nights and then was subjected to ICP metal analysis.
Similar operations were performed as in Example 6 except that the concentration of the added 5-aminolevulinic acid was adjusted to 0, 0.3, or 1 ppm and the manganese concentration in barley was analyzed.
Similar operations were performed as in Example 6 except that the composition of the water culture medium was changed to twofold concentration of the water culture medium A and the concentration of the added 5-aminolevulinic acid was adjusted to 0, 1, or 3 ppm, and then the iron concentration in barley was analyzed.
Similar operations were performed as in Example 6 except that the water culture medium A and a water culture medium having a composition which was twice the composition of the water culture medium A were used and the concentration of the added 5-aminolevulinic acid was adjusted to 0, 0.1, or 0.3 ppm, and then the copper concentration in barley was analyzed. The results are shown in FIG. 4 (left one in the figure is for the water culture medium A and right one is for twofold concentration of the water culture medium A).
Similar operations were performed as in Example 6 except that the concentration of the added 5-aminolevulinic acid was adjusted to 0, 0.1, or 0.3 ppm, and the zinc concentration in barley was analyzed.
Similar operations were performed as in Example 6 except that the concentration of the added 5-aminolevulinic acid was adjusted to 0, 0.1, 0.3, 1, or 3 ppm, and the manganese concentration in barley was analyzed.
Similar operations were performed as in Example 6 except that the concentration of the added 5-aminolevulinic acid was adjusted to 0 or 30 ppm, and the calcium concentration in barley was analyzed.
Similar operations were performed as in Example 6 except that the concentration of the added 5-aminolevulinic acid was adjusted to 0 or 30 ppm, and the manganese concentration in barley was analyzed.
Similar operations were performed as in Example 6 except that the concentration of the added 5-aminolevulinic acid was adjusted to 0 or 30 ppm and the iron concentration in barley was analyzed.
Similar operations were performed as in Example 6 except that the concentration of the added 5-aminolevulinic acid was adjusted to 0 or 30 ppm, and the copper concentration in barley was analyzed.
Similar operations were performed as in Example 6 except that the concentration of the added 5-aminolevulinic acid was adjusted to 0 or 30 ppm, and the zinc concentration in barley was analyzed.
Similar operations were performed as in Example 6 except that the concentration of the added 5-aminolevulinic acid was adjusted to 0 or 30 ppm and the magnesium concentration in barley was analyzed.

radish = test: Metal absorption-enhancing effect in radish by foliage treatment, metal analysis; assay type: in vivo; settings: foliage treatment 1 or 10 ppm, 100 L per 10 are, together with DTPA iron and magnesium sulfate, harvest 25th day
Description: Radish was sowed in a pot of 1/57000×10 are in an amount of 6 seeds per pot and grown. An andosol (Kuroboku-soil) was used as soil and watering was suitably performed. On 11th day after the seeding (a two true leaves-developed stage), a solution containing 5-aminolevulinic acid hydrochloride prepared to a concentration of 0, 1, or 10 ppm in a developing agent-diluted (2000 times) liquid was applied to foliage treatment. Moreover, on this occasion, DTPA iron and magnesium sulfate were transformed into solutions having a concentration of 1.8 and 4.5 ppm in terms of Fe and MgO, respectively, and were applied to foliage treatment together with 5-aminolevulinic acid hydrochloride. The amount used for the treatment was 100 L per 10 are. The number of pots was 5 pots per test plot. On 15th day and 20th day after the seeding, thinning was performed and the number of plants per pot was adjusted to 4 individuals. On 25th day after the seeding, the plants were harvested and completely dried at 50° C. for two nights. Thereafter, they are pulverized and mixed in a mixer and then IPC metal analysis was performed.
Similar operations were performed as in Example and the zinc concentration in radish was analyzed.

potato = test: Metal absorption-enhancing effect in potato tubers by foliage treatment, metal analysis; assay type: in vivo; settings: foliage treatment 1 ppm, from 30th day, then 8 times every other week, tubers harvested 105th day
Description: A seed tuber of potato was subjected to light-exposure and sprout-growth to stimulate germination. The germinated potato was planted in a pot of 1/20000×10 are in an amount of 1 tuber per pot. On 30th day after the planting (height of terrestrial portion: about 30 cm), 5-Aminolevulinic Acid hydrochloride was dissolved in a developing agent-diluted (2000 times) liquid in a concentration of 0 or 1 ppm and was applied to foliage treatment. Thereafter, the foliage treatment was performed 8 times every other week. The number of pots was 3 pots per test plot and new sprouts were removed while a strong thick sprout was left so that the number of sprout per pot was 1. On 105th day after the planting, potato as tubers was harvested and the tubers were selected from each test plot so that the total weight was 120±10 g. Then, they were pared and completely dried at 50° C. for two nights. Thereafter, they are pulverized and mixed in a mixer and then […] metal analysis was performed.
Similar operations were performed as in Example 14 and the magnesium concentration in potato was analyzed.

barley [2] = test: Metal absorption-enhancing effect in barley hydroponics (water culture medium A), ICP metal analysis; assay type: in vivo, Barley (race: Fiber snow); settings: 0.1, 0.3, 1, or 3 ppm in water culture medium A; FIG. 6

Cl.NCC(=O)CCC(=O)O [5-aminolevulinic acid hydrochloride]
Average value of calcium concentration in spinach (spinach; 1 ppm in tap water sprayed once a day, about 50 mL, harvest after 38 days, dry weight, n = 18, no-ALA control 0.61): 0.68%
Average value of iron concentration in spinach (spinach; 1 ppm sprayed once a day, harvest after 38 days, dry weight, n = 18, no-ALA control 0.015): 0.049%
Average value of copper concentration in spinach (spinach; 1 ppm sprayed once a day, harvest after 38 days, dry weight, n = 18, no-ALA control 0.023): 0.029%
Average value of manganese concentration in spinach (spinach; 1 ppm sprayed once a day, harvest after 38 days, dry weight, n = 18, no-ALA control 0.027): 0.031%
Average value of zinc concentration in spinach (spinach; 1 ppm sprayed once a day, harvest after 38 days, dry weight, n = 18, no-ALA control 0.033): 0.048%
calcium content-enhancing effect in spinach (spinach; spraying, 1 ppm once a day): calcium content-enhancing effect was observed
copper content-enhancing effect in spinach (spinach; spraying, 1 ppm once a day): copper content-enhancing effect was observed
iron content-enhancing effect in spinach (spinach; spraying, 1 ppm once a day): iron content-enhancing effect was observed
manganese content-enhancing effect in spinach (spinach; spraying, 1 ppm once a day): manganese content-enhancing effect was observed
zinc content-enhancing effect in spinach (spinach; spraying, 1 ppm once a day): zinc content-enhancing effect was observed
calcium content-enhancing effect in barley (barley [1]; 0.1, 0.3, or 1 ppm in water culture medium A): calcium content-enhancing effect was observed
zinc content-enhancing effect in barley (barley [1]; 0.1 or 0.3 ppm in water culture medium A): zinc content-enhancing effect was observed
copper content-enhancing effect in barley (barley [1]; 0.1 or 0.3 ppm, water culture medium A and twofold concentration of medium A): copper content-enhancing effect was observed
manganese content-enhancing effect in barley (barley [1]; 0.3 or 1 ppm in water culture medium A): manganese content-enhancing effect was observed
iron content-enhancing effect in barley (barley [1]; 1 or 3 ppm, twofold concentration of water culture medium A): iron content-enhancing effect was observed
calcium content-enhancing effect in barley (barley [1]; 30 ppm in water culture medium, Comparative Example 1): calcium content-enhancing effect was not observed
manganese content-enhancing effect in barley (barley [1]; 30 ppm in water culture medium, Comparative Example 2): manganese content-enhancing effect was not observed
iron content-enhancing effect in barley (barley [1]; 30 ppm in water culture medium, Comparative Example 3): iron content-enhancing effect was not observed
copper content-enhancing effect in barley (barley [1]; 30 ppm in water culture medium, Comparative Example 4): copper content-enhancing effect was not observed
zinc content-enhancing effect in barley (barley [1]; 30 ppm in water culture medium, Comparative Example 5): zinc content-enhancing effect was not observed
magnesium content-enhancing effect in barley (barley [1]; 30 ppm in water culture medium, Comparative Example 6, FIG. 6): magnesium content-enhancing effect was not observed
manganese content-enhancing effect in radish (radish; FIG. 7): manganese content-enhancing effect was observed
zinc content-enhancing effect in radish (radish; FIG. 8): zinc content-enhancing effect was observed
iron content-enhancing effect in potato (potato; FIG. 9): iron content-enhancing effect was observed
magnesium content-enhancing effect in potato (potato; FIG. 10): magnesium content-enhancing effect was observed
magnesium content-enhancing effect in barley (barley [2]): magnesium content-enhancing effect was observed
